According to ChEMBL document CHEMBL1158017, “28-deacetylbelamcandal, a tumor-promoting triterpenoid from Iris tectorum” (J Nat Prod, 1999):

Columns and labels:
Mus musculus [1] = organism: Mus musculus; test: Carcinogenesis in CD1 mouse skin assessed as tumor incidence at 400 nmol twice a week for 20 weeks; type: functional
HL-60 [2] = test: Induction of human HL-60 cell adhesion after 48 hrs; type: functional
HL-60 [3] = test: Induction of TNFalpha release from human HL-60 cells after 24 hrs by ELISA; type: functional
Oryctolagus cuniculus = organism: Oryctolagus cuniculus; test: Activation of rabbit brain PKC assessed as [32P] incorporation in histone 3-S from [gamma32P]ATP
[4] = Displacement of [3H]PDBu from partially purified rabbit brain PKC; set-up: species or system Oryctolagus cuniculus
Mus musculus [5] = organism: Mus musculus; test: Carcinogenesis in CD1 mouse skin assessed as tumor incidence at 4 nmol twice a week for 20 weeks; type: functional

C=C(/C=C/C=C(/CO)[C@@H]1CC[C@]2([C@H](CCCO)/C(=C(/C)C=O)CC[C@]2(C)O)[C@H]1O)CCC=C(C)C
Activity (Mus musculus [1]): 64.3%
Activity (HL-60 [2]): 500 nM
ED100 (HL-60 [3]): 3000 nM
ED50 (Oryctolagus cuniculus): 0.3 µM
IC50 [4]: 0.2 µM

CCCCCCCCCCCCCC(=O)O[C@@H]1[C@@H](C)[C@@]2(O)[C@@H](C=C(CO)C[C@]3(O)C(=O)C(C)=C[C@@H]23)[C@@H]2C(C)(C)[C@]12OC(C)=O [PHORBOL MYRISTATE ACETATE]
Activity (Mus musculus [5]): 93.3%
Activity (HL-60 [2]): 3 nM
ED100 (HL-60 [3]): 6 nM
ED50 (Oryctolagus cuniculus): 0.015 µM
IC50 [4]: 0.015 µM
